19 molecules from US20090028925A1, “Novel Phosphinic Acid-Containing Thyromimetics” (priority 2005, published 2009) can be followed below.

Where two headings read alike, the source gives them in different places.

The target of data set [1] is T1, human thyroid hormone receptors TRα1 (Homo sapiens, UniProt P10827).
T1 construct: made in house; host or cells: Sf9 insect cells (baculovirus)
T1 sequence (P10827 1-410 isoform P10827-2): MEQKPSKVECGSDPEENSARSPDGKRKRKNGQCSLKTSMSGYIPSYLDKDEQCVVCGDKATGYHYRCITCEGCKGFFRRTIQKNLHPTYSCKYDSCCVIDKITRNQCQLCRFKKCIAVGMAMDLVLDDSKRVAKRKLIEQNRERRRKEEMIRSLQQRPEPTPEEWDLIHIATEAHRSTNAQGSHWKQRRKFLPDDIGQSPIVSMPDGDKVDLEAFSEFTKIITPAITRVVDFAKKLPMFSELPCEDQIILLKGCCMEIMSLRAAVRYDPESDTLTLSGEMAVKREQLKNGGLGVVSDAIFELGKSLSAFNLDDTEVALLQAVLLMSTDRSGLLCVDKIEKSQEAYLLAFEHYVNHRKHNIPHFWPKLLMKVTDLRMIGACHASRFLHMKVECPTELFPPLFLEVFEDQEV
T1 sequence (P19793 1-462 partner): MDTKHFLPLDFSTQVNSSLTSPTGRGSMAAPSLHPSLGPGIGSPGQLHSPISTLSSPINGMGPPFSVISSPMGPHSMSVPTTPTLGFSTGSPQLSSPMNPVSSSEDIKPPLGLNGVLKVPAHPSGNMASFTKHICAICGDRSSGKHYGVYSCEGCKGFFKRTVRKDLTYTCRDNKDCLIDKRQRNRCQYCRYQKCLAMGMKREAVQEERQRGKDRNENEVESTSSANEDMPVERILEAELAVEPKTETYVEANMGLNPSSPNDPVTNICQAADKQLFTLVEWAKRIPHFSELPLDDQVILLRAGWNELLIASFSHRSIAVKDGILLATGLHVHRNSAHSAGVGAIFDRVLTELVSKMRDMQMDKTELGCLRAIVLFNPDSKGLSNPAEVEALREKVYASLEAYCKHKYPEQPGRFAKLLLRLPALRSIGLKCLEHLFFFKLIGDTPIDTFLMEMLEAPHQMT
Put plainly: Receptor binding to TRα1 (gel filtration and scintillation proximity assay, labeled T3). The conditions noted are these: SPA data; read-out: Ki TRα. In general terms: Size exclusion chromatography separates by hydrodynamic size, large species first.

A further data set has as its system plasma cholesterol. In words: Cholesterol lowering in hypercholesterolemic rats. Format: in vivo. Particulars: for change in vivo at 0.2 mg/kg/day: Rattus norvegicus, read-out: % Cholesterol Lowering.
Data set [2] concerns the target T2, human thyroid hormone receptors TRβ1 (Homo sapiens, UniProt P10828).
T2 construct: made in house; host or cells: Sf9 insect cells (baculovirus)
T2 sequence (P10828 1-461): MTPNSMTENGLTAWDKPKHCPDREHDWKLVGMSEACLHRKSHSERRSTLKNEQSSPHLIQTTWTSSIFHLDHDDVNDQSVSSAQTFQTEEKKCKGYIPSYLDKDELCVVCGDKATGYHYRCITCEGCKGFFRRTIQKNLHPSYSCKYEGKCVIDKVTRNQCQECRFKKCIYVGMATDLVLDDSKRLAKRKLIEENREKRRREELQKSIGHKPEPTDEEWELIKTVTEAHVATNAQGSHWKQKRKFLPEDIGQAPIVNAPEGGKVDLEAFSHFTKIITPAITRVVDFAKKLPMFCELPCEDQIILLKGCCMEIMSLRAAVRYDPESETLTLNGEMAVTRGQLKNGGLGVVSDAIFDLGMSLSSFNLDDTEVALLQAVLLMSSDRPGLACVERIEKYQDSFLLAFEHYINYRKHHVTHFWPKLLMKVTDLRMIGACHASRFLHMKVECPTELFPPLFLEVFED
T2 sequence (P19793 1-462 partner): T1 sequence (P19793 1-462 partner)
In words: Receptor binding to TRβ1 (gel filtration and scintillation proximity assay, labeled T3). The conditions noted are these: SPA data; read-out: Ki TRβ.

Data set [3] in a line: Continuous infusion study in rats on a cholesterol-containing diet. Format: in vivo. Particulars: continuous infusion 1 mg/kg/day; for cholesterol lowering effects: day 7 and day 14; for cardiovascular parameters (heart rate, LV dP/dt, systolic and diastolic blood pressure): day 7 or day 14.
Method: Screening for thyromimetic activity was performed in normal rats maintained on a cholesterol-containing diet. Compounds were administered by continuous infusion using an osmotic pump at 1 mg/kg/day.
Setting [4] is: ip, delivered i.p (0.2 mg/kg/d), percentage change from pre-dose cholesterol.
[5] abbreviates: po, delivered p.o. (0.2 mg/kg/d), percentage change from pre-dose cholesterol.

The Ki is the dissociation constant of the complex between target and ligand, obtained from inhibition or displacement. Turning to `Cc1cc(OCP(=O)(O)O)cc(C)c1Oc1ccc(O)c(C(C)C)c1` [Compound 31, [3,5-dimethyl-4-(4′-hydroxy-3′-iso-propylphenoxy)phenoxy]methylphosphonic acid], the Ki stood at 540 nM in data set [1] and 73 nM in data set [2]. The change in vivo at 0.2 mg/kg/day in the data set on plasma cholesterol (setting [4]) is -21.1%.
Take `Cc1cc(OCP(=O)(O)O)cc(C)c1Cc1ccc(O)c(C(=O)NCCc2ccccc2)c1` [Compound 37, [3,5-dimethyl-4-(4′-hydroxy-3′-phenethylcarbamoylbenzyl)phenoxy]methylphosphonic acid]: the inhibitory constant (Ki) worked out at 294 nM in data set [1] and 23 nM in data set [2]. Further, in the data set on plasma cholesterol (setting [4]), the change in vivo at 0.2 mg/kg/day is -0.4%.
As to `Cc1cc(OCP(=O)(O)O)cc(C)c1Cc1ccc(O)c(Cc2ccccc2)c1` [Compound 38, [4-(3′-benzyl-4′-hydroxy-benzyl)-3,5-dimethylphenoxy]methylphosphonic acid], the Ki in data set [1] stood at 254 nM; in data set [2] it was 5.4 nM. Also, the change in vivo at 0.2 mg/kg/day in the data set with plasma cholesterol (setting [4]) is -21.7%.
Take `Cc1cc(OCP(=O)(O)O)cc(C)c1Cc1ccc(O)c(Cc2ccc(F)cc2)c1` [Compound 40, [3,5-dimethyl-4-[3′-(4-fluoro-benzyl)-4′-hydroxy-benzyl]phenoxy]methylphosphonic acid]: the figures for the inhibition constant Ki in data set [1] and in data set [2] were 30 nM and 1.1 nM, respectively. The change in vivo at 0.2 mg/kg/day in the data set with plasma cholesterol (setting [4]) was -64.2%; with plasma cholesterol (setting [5]) it was -27.3%.
Consider `Cc1cc(CCP(=O)(O)O)cc(C)c1Cc1ccc(O)c(Cc2ccccc2)c1` [Compound 42, 2-[3,5-dimethyl-4-[3′-benzyl-4′-hydroxy-benzyl]phenyl]-ethylphosphonic acid], for which the Ki in data set [1] is 794 nM; in data set [2] it was 16.2 nM. Also, in the data set with plasma cholesterol (setting [4]), the change in vivo at 0.2 mg/kg/day is -28.8%.
With `Cc1cc2oc(P(=O)(O)O)cc2c(C)c1Cc1ccc(O)c(C(C)C)c1` [Compound 45, [4,6-Dimethyl-5-(4′-hydroxy-3′-iso-propyl)benzyl]benzofuran-2-phosphonic Acid], the inhibition constant (Ki) in data set [1] worked out at 216 nM; in data set [2] it was 14 nM. In addition, the values for the change in vivo at 0.2 mg/kg/day with plasma cholesterol (setting [4]) and with plasma cholesterol (setting [5]) were -46.3% and -40.4%, respectively.
As to `Cc1cc(OCP(=O)(O)O)c(I)c(C)c1Cc1ccc(O)c(C(C)C)c1` [Compound 46, [3,5-Dimethyl-4-(4′-hydroxy-3′-iso-propylbenzyl)-2-iodophenoxy]methylphosphonic Acid], the inhibitory constant (Ki) in data set [1] was 20 nM; in data set [2], 2 nM. Moreover, the change in vivo at 0.2 mg/kg/day in the data set on plasma cholesterol (setting [4]) was -29.6%; in the data set with plasma cholesterol (setting [5]), -23.8%.
Take `Cc1cc(NCP(=O)(O)O)cc(C)c1Cc1ccc(O)c(C(C)C)c1` [Compound 47, [3,5-Dimethyl 4-(4′-hydroxy-3′-iso-propylbenzyl)-phenylamino]methylphosphonic Acid]: the Ki in data set [1] is 24.3 nM; in data set [2], 2.5 nM. Besides, in the data set with plasma cholesterol (setting [4]), the change in vivo at 0.2 mg/kg/day was -29.3%.
As for `Cc1cc(OCP(=O)(O)O)cc(C)c1Cc1ccc(O)c(C2CC2)c1` [Compound 48, [4-(3′-cyclopropyl-4′-hydroxybenzyl)-3,5-dimethylphenoxy]methylphosphonic acid], the inhibition constant (Ki) in data set [1] is 129 nM; in data set [2] it was 9 nM. Moreover, the change in vivo at 0.2 mg/kg/day with plasma cholesterol (setting [4]) is -23.4%.
For `Cc1cc(S(=O)(=O)CP(=O)(O)O)cc(C)c1Cc1ccc(O)c(C(C)C)c1` [Compound 52, [3,5-dimethyl-4-(4′-Hydroxy-3′-iso-propylbenzyl)benzenesulfonyl]methylphosphonic acid] the same measures were > 2000 nM, 48 nM and -18.8%.
`Cc1cc(OCP(=O)(O)O)c(C)c(C)c1Cc1ccc(O)c(C(C)C)c1` [Compound 61, [4-(4′-hydroxy-3′-isopropylbenzyl)-2,3,5-trimethylphenoxymethyl]phosphonic acid]: the Ki in data set [1] was 42.7 nM; in data set [2] it was 1.4 nM. For the same molecule, the change in vivo at 0.2 mg/kg/day in the data set on plasma cholesterol (setting [5]) is -33.7%.
In the case of `Cc1cc2[nH]c(P(=O)(O)O)cc2c(C)c1Oc1ccc(O)c(C(C)C)c1` [Compound 66], the results for the inhibitory constant (Ki) in data set [1] and in data set [2] were 863 nM and 121 nM, respectively. Further, the figures for the change in vivo at 0.2 mg/kg/day in the data set on plasma cholesterol (setting [4]) and in the data set on plasma cholesterol (setting [5]) were -42.9% and -12.5%, respectively.
Regarding `CC(C)c1cc(Oc2c(Br)cc(CCP(=O)(O)O)cc2Br)ccc1O` [Compound 67, 2-[3,5-dibromo-4-(4′-hydroxy-3′-isopropylphenoxy)phenyl]ethylphosphonic Acid], the Ki was 37 nM in data set [1] and 1.8 nM in data set [2]. For the same molecule, in the data set on plasma cholesterol (setting [5]), the change in vivo at 0.2 mg/kg/day was -17%.
As to `COP(=O)(O)COc1cc(C)c(Cc2ccc(O)c(C(C)C)c2)c(C)c1` [Compound 69, [3,5-dimethyl-4-(4′-hydroxy-3′-iso-propylbenzyl)phenoxy]methylphosphonic acid monomethyl ester], the inhibition constant Ki in data set [1] was 13.5 nM. In addition, in data set [3], the cholesterol lowering effects entry is listed as “demonstrated cholesterol lowering effects”; the “cardiovascular parameters (heart rate, LV dP/dt, systolic and diastolic blood pressure)” value (“cardiovascular parameters” below) is “no changes in any of the cardiovascular parameters”. The change in vivo at 0.2 mg/kg/day in the data set on plasma cholesterol (po) was -41.9%. The Ki in data set [2] came out at 3 nM.
As for `CCOP(=O)(O)COc1cc(C)c(Cc2ccc(O)c(C(C)C)c2)c(C)c1` [Compound 69-1, [3,5-dimethyl-4-(4′-hydroxy-3′-iso-propylbenzyl)phenoxy]methylphosphonic acid monoethyl ester], in data set [3], the cholesterol lowering effects result is reported as “demonstrated cholesterol lowering effects”; the “cardiovascular parameters” value is “no changes in any of the cardiovascular parameters”.
Regarding `COP(=O)(O)Cc1cc(Br)c(Oc2ccc(O)c(C(C)C)c2)c(Br)c1` [Compound 69-2, [3,5-dibromo-4-(4′-hydroxy-3′-isopropylphenoxy)benzyl]phosphonic Acid Monomethyl Ester], the inhibition constant Ki in data set [1] is 2.8 nM; in data set [2], 0.8 nM. Besides, the change in vivo at 0.2 mg/kg/day in the data set on plasma cholesterol (po) was -49.9%.
Consider `Cc1cc(OCP(C)(=O)O)cc(C)c1Cc1ccc(O)c(C(C)C)c1` [Compound 70, [3,5-dimethyl-4-(4′-hydroxy-3′-iso-propylbenzyl)phenoxymethyl]methylphosphinic acid], for which, in data set [1], the inhibition constant (Ki) is 183 nM. Further, in data set [3], the cholesterol lowering effects entry is reported as “demonstrated cholesterol lowering effects”; the “cardiovascular parameters” value was “no changes in any of the cardiovascular parameters”. The change in vivo at 0.2 mg/kg/day in the data set with plasma cholesterol (setting [5]) is -32.8%. Further, the inhibition constant (Ki) in data set [2] is 5.4 nM.
Consider `CC(C)c1cc(Oc2c(Br)cc(CP(C)(=O)O)cc2Br)ccc1O` [Compound 71, [3,5-Dibromo-4-(4′-hydroxy-3′-isopropylphenoxy)benzyl]methylphosphinic Acid], for which the Ki in data set [1] is 4 nM; in data set [2], 0.4 nM. Further, the change in vivo at 0.2 mg/kg/day in the data set on plasma cholesterol (setting [5]) was -54.4%.
As to “[3,5-dimethyl-4-(4′-Hydroxy-3′-iso-propyl-phenyl)methoxymethyl]phenoxy]methylphosphonic acid [Compound 33]”, the figures for the Ki in data set [1] and in data set [2] were 267 nM and 16.7 nM, respectively. Besides, the “% Cholesterol Lowering” value in the data set on plasma cholesterol (delivered i.p (0.2 mg/kg/d), percentage change from pre-dose cholesterol) was −32.5%.
